SMILES strings stand for the structures.

These results are taken from paper PMC4981864, “Novel pH-Sensitive Cyclic Peptides” (Scientific Reports, 2016).

A short description of this data set: Dual quenching assay (acrylamide / 10-DN). Format: physicochemical. As to conditions: 7 μM peptide, 2.1 mM POPC. The source says:
To establish localization of the peptides within a lipid bilayer of membrane, dual quenching assay[28] was employed (Fig. 3 and Table S3). Effective quenching of fluorescence by acrylamide would occur only for tryptophan residues exposed to polar parts of the outer or inner leaflets of the bilayer. At the same time, tryptophan residues located in the middle of a membrane would be effectively quenched by 10-DN. The result of the dual quenching assay allows establishing if tryptophan residues were located in the middle of a membrane or close to the polar headgroups of the bilayer. […] Therefore, we also performed Förster resonance energy transfer (FRET) assay[29] (Fig. 4). First, symmetrically-labelled by NBD dye, POPC liposomes were prepared. Then, membrane-impermeable dithionite was used to chemically modify exposed NBD, which led to the quenching of NBD fluorescence. Thus, NBD dyes located at the outer leaflet of the bilayer were deactivated and excess of dithionite was removed by gel filtration. As a result, asymmetrically-labelled liposomes with active NBD at the inner leaflet were obtained. FRET was monitored from tryptophan residues of the peptides to NBD. Energy transfer might occur only when both fluorophores are in proximity to each other (within 5–15 Å). Thus, when tryptophan residues located at the outer leaflet of the bilayer no significant energy transfer to NBD at the inner leaflet would occur (the distance is about 50–60 Å). […] All other peptides were located at the outer leaflet of the bilayer at pH 8. Drop of pH promoted partitioning of all cyclic peptides into bilayer, which highest FRET for the c[E4W5C] at pH 3.
POPC liposomes without and with 10% of the lipids replaced by 10-doxylnonadecane (10-DN) (Avanti Polar Lipids) were prepared in 10 mM citrate-phosphate buffer pH 8.0. Peptides and POPC liposomes were mixed to generate final concentrations of 7 μM peptide and 2.1 mM POPC without and with 10-DN. […] Quencher, acrylamide (Sigma-Aldrich), was added to the samples of POPC liposomes containing no 10-DN, to have final concentration of 235 mM acrylamide. Concentration of peptides in all samples was kept constant. To observe quenching of tryptophan fluorescence by 10-DN or acrylamide, the tryptophan fluorescence was recorded as described above. The appropriate POPC blanks were measured and subtracted from the measured spectra before analysis. The percentage of quenching was calculated.

Take `O=C(O)CC[C@@H]1NC(=O)[C@H](CS)NC(=O)[C@H](Cc2c[nH]c3ccccc23)NC(=O)[C@H](Cc2c[nH]c3ccccc23)NC(=O)[C@H](Cc2c[nH]c3ccccc23)NC(=O)[C@H](Cc2c[nH]c3ccccc23)NC(=O)[C@H](Cc2c[nH]c3ccccc23)NC(=O)[C@H](CCC(=O)O)NC(=O)[C@H](CCC(=O)O)NC(=O)[C@H](CCC(=O)O)NC1=O` [c[E4W5C]]: the “percentage of fluorescence quenching, Pep-PC+AC pH3” value (235 mM acrylamide, pH 3) stood at 54%. Besides, where the note is “235 mM acrylamide, pH 8”, the “percentage of fluorescence quenching, Pep-PC+AC pH8” value was 61%. For the same compound, under “10% of lipids replaced by 10-DN, pH 3”, the “percentage of fluorescence quenching, Pep-PC+10-DN pH3” value stood at 52%. In addition, the “percentage of fluorescence quenching, Pep-PC+10-DN pH8” value (10% of lipids replaced by 10-DN, pH 8) was 49%.
